Assay results from patent US20240181087A1, “COMPOSITION FOR CONTRAST IMAGING OF CANCER” (ASTELLAS PHARMA INC., priority 2021, published 2024).

Experiments:
[1] = test system: renal epithelial cell carcinoma; assay: near-infrared fluorescence imaging of kidney with tumor/pretumor induced with ferric nitrilotriacetate; format: in vivo, rat
Description: A kidney cancer […] model was created based on a method reported by Okada et al., (Okada et al., Jpn. Arch. Int. Med., 1982, 29, 485). Specifically, rats (280 g to 320 g) were bred after continuously intraperitoneally administering ferric nitrilotriacetate to the rats for 6 months, and thus, renal epithelial cell carcinoma was induced therein.
Each of the rats was anesthetized by intraperitoneally administering pentobarbital sodium salt, a saline containing the compound III was administered to the tail vein (dose of the compound: 0.75 mg/kg of the rat), and 30 minutes, 3 hours, or 24 hours after the administration, the rat was subjected to laparotomy to perform near-infrared fluorescence imaging of the kidney with a near-infrared fluorescence imaging device (PDE, manufactured by Hamamatsu Photonics K.K.) (FIG. 11). Besides, the kidney having been subjected to the near-infrared fluorescence imaging was excised from the body, and the cross section was subjected to near-infrared fluorescence imaging (FIG. 12). Three rats each were used at each of the above-described timings after the administration, and nine rats were used in total.
Besides, a specimen for microscopic observation was created through ethanol immobilization, section creation, hematoxylin/eosin staining for performing observation in bright field and near-infrared fluorescence (FIG. 13). […] Thus, tumor embedded in surrounding tissues could be detected.

[2] = test system: Human stomach cancer cell MKN45; assay: near-infrared fluorescence observation, human stomach cancer cell subcutaneous transplant mouse; format: in vivo; conditions: nude mouse, tail vein 120 nmol/kg, observed from above the skin
Text: Human stomach cancer cell MKN45 (1×10^7 cells, purchased from JCRB cell bank of National Institutes of Biomedical Innovation, Health and Nutrition) was subcutaneously transplanted into the right or left side, or the center of the back in the base of the foreleg of a nude mouse (BALB/cSlc-nu, SPF, male, 5 weeks old), and the resultant mouse was bred for 10 days to create a mouse having a stomach cancer tissue grown therein. After anesthetizing the mouse (weight: about 20 g) by subcutaneous administration of ketamine (75 mg/kg) and medetomidine (1 mg/kg), the compound III (120 nmol/kg weight) was administered through the tail vein, and near-infrared fluorescence was observed from above the skin on the back side with a near-infrared fluorescence imaging device (pde-neo, manufactured by Hamamatsu Photonics K.K.).

[3] = test system: RenCa cell; assay: near-infrared fluorescence imaging of abdominal cavity, peritoneal cancer mouse model (RenCa, intraperitoneal); format: in vivo; conditions: tail vein 12 nmol/kg; laparotomy immediately after administration
Description: Metastatic spontaneous renal cell carcinoma line from BALB/c mouse, RenCa cell (5×10^6 cells, purchased from CLS Cell Lines Service GmbH, Eppelheim, Germany) was intraperitoneally inoculated into a mouse (BALB/cCrSlc, SPF, female, 7 weeks old) and the resultant mouse was bred for 14 days to cause peritoneal cancer therein. The mouse (weight: about 20 g) was anesthetized by subcutaneous administration of ketamine (75 mg/kg) and medetomidine (1 mg/kg), and the compound III (12 nmol/kg weight) was administered through the tail vein. Immediately after the administration, laparotomy was conducted to perform near-infrared fluorescence imaging with a near-infrared fluorescence imaging device (pde-neo, manufactured by Hamamatsu Photonics K.K.).

[4] = test system: Human stomach cancer cell MKN45-Luc; assay: near-infrared fluorescence observation of abdominal cavity, peritoneal dissemination mouse model; format: in vivo; conditions: tail vein 40 nmol/kg, 10 minutes
Text: Human stomach cancer cell MKN45-Luc (5×10^6 cells, purchased from JCRB cell bank of National Institutes of Biomedical Innovation, Health and Nutrition) was intraperitoneally injected into a nude mouse (BALB/cSlc-nu, SPF, male, weight: about 20 g), and the resultant mouse was bred for 15 days to create a nude mouse having peritoneal dissemination. […] The near-infrared fluorescence was not emitted from the abdominal cavity of the normal mouse (FIG. 22).

[5] = test system: RenCa kidney cancer cell; assay: near-infrared fluorescence observation of kidney, kidney cancer mouse (RenCa in left kidney); format: in vivo; conditions: tail vein 12 nmol/kg, after 10 minutes
Description: Under anesthesia by subcutaneous administration of ketamine (75 mg/kg) and medetomidine (1 mg/kg), RenCa kidney cancer cell (5×10^6 cells, purchased from CLS Cell Lines Service GmbH, Eppelheim, Germany) was transplanted into the left kidney of a mouse (weight: about 20 g), and the resultant mouse was bred for 9 to 14 days to create a kidney cancer mouse. […] The fluorescence from a cancer tissue was weak, the fluorescence from a normal tissue was strong, and thus, the cancer tissue and the normal tissue could be distinguished from each other (FIG. 24).

[6] = test system: human tongue cancer cells CAL27; assay: near-infrared fluorescence imaging after topical administration into tumor, human tongue cancer subcutaneous transplant model; format: in vivo; conditions: SCID mouse, 0.02 to 0.1 mL of 1 mg/mL, immediately after and 50 minutes after administration
Description: (§1) A human cancer cell transplant model mouse was created as follows: • (Head and neck/tongue cancer) To immunodeficient SCID mice (weight: 17 g to 23 g), about 10^6 human tongue cancer cells CAL27 (purchased from American Type Culture Collection: ATCC) were subcutaneously administered, and the resultant mice were grown for 49 days to create tumor models. • (Brain cancer/neuroblastoma) To immunodeficient SCID mice (weight: 17 g to 23 g), about 10^6 human neuroblastoma cells SH-SY5Y (purchased from ATCC) were subcutaneously administered, and the resultant mice were grown for 90 days to create tumor models. • (Brain cancer/glioblastoma) To immunodeficient SCID mice (weight: 17 g to 23 g), about 10^6 human glioblastoma cells U-251MG (obtained from European Collection of Authenticated Cell Cultures) were subcutaneously administered, and the resultant mice were grown for 90 days to create tumor models.
(§2) Subsequently, to the tumor of each of the mouse models, 0.02 to 0.1 mL of a saline containing the compound III (concentration of the compound III: 1 mg/mL) was topically administered, and fluorescence imaging was conducted transdermally with a near-infrared fluorescence camera (Fluobeam, manufactured by Fluoptics) (excitation wavelength: 780 nm, detection wavelength: 800 nm or more).

[7] = test system: human neuroblastoma cells SH-SY5Y; assay: near-infrared fluorescence imaging after topical administration into tumor, human neuroblastoma subcutaneous transplant model; format: in vivo; conditions: SCID mouse, 0.02 to 0.1 mL of 1 mg/mL, 1 hour after administration
Description: as §1, §2

[8] = ferric nitrilotriacetate rat, tail vein 0.75 mg/kg, excised kidney
[9] = MKN45-Luc peritoneal dissemination nude mouse

COC1=C(/C=C/C2=[N+](CCC(=O)NCCCO[C@H]3[C@H]4O[C@H]5[C@H](O)[C@@H](O)[C@@H](O[C@H]6[C@H](O)[C@@H](O)[C@@H](O[C@H]7[C@H](O)[C@@H](O)[C@@H](O[C@H]8[C@H](O)[C@@H](O)[C@@H](O[C@H]9[C@H](O)[C@@H](O)[C@@H](O[C@H]%10[C@H](O)[C@@H](O)[C@@H](O[C@@H]([C@@H]3O)[C@@H](CO)O4)O[C@@H]%10CO)O[C@@H]9CO)O[C@@H]8CO)O[C@@H]7CO)O[C@@H]6CO)O[C@@H]5CO)c3ccc4ccccc4c3C2(C)C)CCC/C1=C\C=C1\N(CCC(=O)NCCCO[C@H]2[C@H]3O[C@H]4[C@H](O)[C@@H](O)[C@@H](O[C@H]5[C@H](O)[C@@H](O)[C@@H](O[C@H]6[C@H](O)[C@@H](O)[C@@H](O[C@H]7[C@H](O)[C@@H](O)[C@@H](O[C@H]8[C@H](O)[C@@H](O)[C@@H](O[C@H]9[C@H](O)[C@@H](O)[C@@H](O[C@@H]([C@@H]2O)[C@@H](CO)O3)O[C@@H]9CO)O[C@@H]8CO)O[C@@H]7CO)O[C@@H]6CO)O[C@@H]5CO)O[C@@H]4CO)c2ccc3ccccc3c2C1(C)C.[Cl-] [compound III, 3-(3-{[3-(cyclomaltoheptaose-21-O-yl)propyl]amino}-3-oxopropyl)-2-{(1E)-2-[(3E)-3-{(2E)-2-[3-(3-{[3-(cyclomaltoheptaose-21-O-yl)propyl]amino}-3-oxopropyl)-1,1-dimethyl-1,3-dihydro-2H-benzo[e]indol-2-ylidene]ethylidene}-2-methoxycyclohexa-1-en-1-yl]ethene-1-yl}-1,1-dimethyl-1H-benzo[e]indol-3-ium chloride]
near-infrared fluorescence micro image of kidney tissue section ([1]; ferric nitrilotriacetate rat, near-infrared fluorescence microscope, section 3 hours after administration): strong near-infrared fluorescence was found locally in a non-neoplastic degeneration site, a pre-neoplastic degeneration site, and a neoplastic degeneration site
near-infrared fluorescence macro image of the surface of the kidney having tumor and pretumor ([1]; ferric nitrilotriacetate rat, tail vein 0.75 mg/kg, 30 minutes, 3 hours or 24 hours after administration): strong fluorescence was locally found in a dotted manner
near-infrared fluorescence image of kidney cross section: dotted fluorescence in renal medulla [1, 8]: not observed
near-infrared fluorescence image of kidney cross section: renal cortex [1, 8]: a site exhibiting strong fluorescence in a dotted manner was observed
aspect of dotted strong fluorescence in normal kidney ([1]; normal rat, tail vein 0.75 mg/kg): not observed
near-infrared fluorescence of stomach cancer tissue versus normal tissue [2]: stronger in a cancer tissue than in a normal tissue
near-infrared fluorescence from peritoneal cancer site versus normal tissue [3]: stronger than that from a normal tissue
near-infrared fluorescence of dissemination present in the entire abdominal cavity [4, 9]: emitted the near-infrared fluorescence
near-infrared fluorescence of visually recognizable cancer tissue (nearly necrotic) [4, 9]: did not emit the near-infrared fluorescence
near-infrared fluorescence from abdominal cavity of normal mouse ([4]; normal nude mouse): not emitted
fluorescence from kidney cancer tissue [5]: weak
fluorescence from normal kidney tissue [5]: strong
retention inside the tumor (fluorescence imaging) [6]: retained inside the tumor
retention inside the tumor (fluorescence imaging) [7]: retained inside the tumor
